Assay results taken from patent publication US6838237B2, “Antigenically reactive regions of the hepatitis a virus polyprotein” (The United States of America as represented by the …, priority 1996, dated 2005).
Several values for one entry are separate records, joined by “and”; a condition that tells them apart may be missing. Identical values can stand only once.

How the values were obtained:
anti-HAV-positive sera = test: EIA for anti-HAV: synthetic peptides adsorbed to wells, reacted with anti-HAV-positive acute sera; format: binding, human; conditions: for Reactivity with acute sera (reactive/tested): experiment 1: sera 1:100, anti-human IgG-HRP, cutoff P/N 3.0; for Reactivity with acute sera (percent of sera reactive): experiment 1: sera 1:100, cutoff P/N 3.0; for P/N for acute sera (mean) / P/N for acute sera (range, in parentheses): OD493 positive/negative ratio of reactive sera
Source text: (§1) All anti-HAV-positive and anti-HAV-negative sera were randomly selected from a collection reposited at the Centers for Disease Control and Prevention, Atlanta, Ga. Serum specimens were collected from anti-HAV-positive patients with acute liver disease. Anti-HAV-negative serum specimens were collected from normal blood donors. All sera were initially tested by commercially available kit for the presence of anti-HAV activity (HAVAB and HAVAB-M, Abbott Laboratories, Abbott Park, Ill.)
(§2) Synthetic peptides (110 ml) at a concentration of 10 mg/ml in 0.1 M phosphate-buffered saline (PBS), pH 7.5, were adsorbed to microtiter wells (Immulon II, Dynatech Laboratories, Inc.) at room temperature for 12 h. Sera were diluted in PBS containing 0.1% Tween 20 and 10% normal goat serum (PBS-T) and 100 ml were added to each well, incubated for 60 min at 37E C, and washed with PBS containing Tween-20. […] Two different cutoffs were established for experiments 1 and 2. In experiment 1, the cutoff, expressed as a P/N ratio and equal to 3.0, was statistically established as the mean of negative controls plus at least 3.5 standard deviations (SD) above the mean, where P represents the optical density value at 493 nm (OD493) of anti-HAV-positive specimens and N represents the optical density value of negative controls. In experiment 2, a different cutoff was used to ensure statistical reliability and accurate interpretation of positive results. In this case, in addition to anti-HAV-negative sera, two irrelevant synthetic peptides were used as supplemental negative controls to determine the degree of nonspecific binding of anti-HAV sera to synthetic peptides. One cutoff, expressed as a P/N ratio and equal to 3.0, corresponded to the mean of negative serum controls plus at least 3.5 SD above the mean. A second cutoff was also expressed as a P/N ratio, where P represents the optical density value at 493 nm (OD493) for HAV peptides immunoreacting with anti-HAV-positive specimens and N represents the optical density value obtained with the irrelevant peptides. The second cutoff was equal 2.0 and corresponded to the mean of OD values obtained with the irrelevant peptides plus at least 3.5 SD above the mean. Synthetic peptides were considered immunoreactive with anti-HAV serum specimens only when both cutoffs were satisfied.

anti-HAV-negative sera = test: EIA for anti-HAV: synthetic peptides reacted with anti-HAV-negative sera; format: binding, human; conditions: experiment 1: sera 1:100, cutoff P/N 3.0
Source text: as §1, §2

Sequence | Reactivity with acute sera (reactive/tested) (anti-HAV-positive sera) | Reactivity with acute sera (percent of sera reactive) (anti-HAV-positive sera) | P/N for acute sera (mean) (anti-HAV-positive sera; experiment 1) | P/N for acute sera (range, in parentheses) (anti-HAV-positive sera; experiment 1) | Reactivity with negative sera (reactive/tested) (anti-HAV-negative sera) | percent of (IgM) anti-HAV-positive sera immunoreactive with peptide (anti-HAV-positive sera) | immunoreactivity with anti-HAV-positive sera (in words) (anti-HAV-positive sera) | P/N for acute sera (individual values) (anti-HAV-positive sera; experiment 1, single sera listed with semicolon)
INPTPFQQGGLICAMVPGDQ [YK-1217] | 4/41 | 9.8% | 4.03 | (3.94-4.12) | 0/46 |  |  | 
PQLKPVSELTFLKRSFNLVE [YK-1431] | 4/41 | 9.8% | 14.13 | (3.17-27.53) | 1/27 |  |  | 
LGSINQAMVTRCEPVVCYLY [YK-1347] | 13/48 | 27.1% | 4.16 | (3.18-6.2) | 2/51 | 27.1% |  | 
GGIKITHFTTWTSIPTLAAQ [YK-1236] | 22/46 | 47.8% | 4.68 | (3.1-9.33) | 0/48 |  |  | 
KTMIRFGDVGLDLDFSAFDA [YK-1418] | 6/41 | 14.6% | 4.5 | (3.35-6.21) | 1/27 |  |  | 
MLSKYSLPIVEEPEDYKEAS [YK-1399] | 5/41 | 12.2% | 6.86 | (4.05-16.46) | 1/27 |  |  | 
NPSPKTVYVKEAIDRRLHFK [YK-1360] | 4/41 | 9.8% | 4.08 | (3.68-4.71) | 0/46 |  |  | 
DLEEIAANSKDFPNMSETDL [YK-1328] | 6/48 | 12.5% | 4.76 | (3.74-6.39) | 1/51 |  |  | 
DKPGSKKTQGEKFFLIHSAD [YK-1212] | 3/41 | 7.3% | 3.5 | (3.04-3.96) | 0/46 |  |  | 
ITTIEDPVLAKKVPETFPEL [YK-1271] | 4/41 | 9.8% | 4.97 | (3.33-7.76) | 1/46 |  |  | 
HTYARFGIEIQVQINPTPFQ [YK-1216] | 23/41 | 56.1% | 5.3 | (3.42-10.79) | 4/46 |  |  | 
DHMSIYKFMGRSHFLCTFTF [YK-1276] | 17/41 | 41.5% | 4.38 | (3.15-5.62) | 0/46 |  | broad and strong antigenic reactivity | 
NRGKMDVSGVQAPVGAITTI [YK-1268] | 7/46 | 15.2% | 9.1 | (6.07-15.25) | 2/48 |  |  | 
GLVRKNLVQFGVGEKNGCVR [YK-1376] | 3/41 | 7.3% | 6.71 | (3.8-12.77) | 0/27 |  |  | 
IKVIPVDPYFFQMTNTNPDQ [YK-1244] | 6/41 | 14.6% | 4.2 | (3.55-5.2) | 0/46 |  |  | 
FWRGDLVFDFQVFPTKYHSG [YK-1248] | 3/41 | 7.3% |  |  | 0/46 |  |  | 3.16 and 3.2
